According to US11214803B2, “Modulators of YAP1 expression” (Ionis Pharmaceuticals, Inc., priority 2019, dated 2022):
Strand notation (5' to 3'): a small letter for the sugar, then the base; units joined by * are phosphorothioate-linked, units joined directly phosphodiester-linked; [ ] holds rarer units or linkages, { } end groups; capitals alone tell only the bases. e = 2'-O-(2-methoxyethyl) (MOE); k = constrained ethyl (cEt); [5mC] = 5-methylcytosine; d = 2'-deoxy (DNA); m = 2'-O-methyl

What follows are substances tested on Yap1 mRNA (assay: Antisense inhibition of human Yap1 in SNU-449 cells by modified oligonucleotides, single dose (Example 5, RTS36584)). Details: Table 39; SNU-449 cells, 10,000 cells per well, free uptake, 2,000 nM oligonucleotide, approx. 48 hours; RTS36584; normalized to RIBOGREEN; Yap1 mRNA relative to untreated control.
Assay type: cell-based
In short: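 Free uptake, 2,000 nM, ~48 h, SNU-449 at 10,000 cells/well. Read-out: qRT-PCR (RTS36584), RIBOGREEN-normalised, expressed as % UTC. Asterisk = oligo hits amplicon region.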

| Substance | YAP1 (% UTC) |
| --- | --- |
| 1198431 (kA*dA*dT*dA*dT*dT*dG*d[5mC]*dA*dA*dT*k[5mC]*eT*kG*eT*k[5mC]; antisense) [Compound 1198431] | 35 % UTC |

Same assay, conditions: Table 40 (separate experiment); SNU-449 cells, 10,000 cells per well, free uptake, 2,000 nM oligonucleotide, approx. 48 hours; RTS36584; normalized to RIBOGREEN; Yap1 mRNA relative to untreated control

| Substance | YAP1 (% UTC) |
| --- | --- |
| 1198444 (kT*dT*dT*dA*dA*dA*dG*dT*dG*dT*dA*kT*eG*kT*e[5mC]*kA; antisense) [Compound 1198444] | 70 % UTC |
| 1198763 (kG*eA*kT*dT*dT*dA*dG*dG*dA*dT*dG*d[5mC]*eA*eT*kG*kG; antisense) [Compound 1198763] | 26 % UTC |
| 1198725 (kT*eA*kG*dA*dG*dT*dA*dT*dG*dT*dG*dG*e[5mC]*eA*kA*kT; antisense) [Compound 1198725] | 23 % UTC |
| 1198714 (kT*eG*kT*d[5mC]*dT*d[5mC]*dA*dT*dG*d[5mC]*d[5mC]*dT*eT*eA*kT*kA; antisense) [Compound 1198714] | 20 % UTC |

Same assay, conditions: Table 41; SNU-449 cells, 10,000 cells per well, free uptake, 2,000 nM modified oligonucleotide, approximately 48 hours; RTS36584; normalized to RIBOGREEN; Yap1 mRNA relative to untreated control cells

| Substance | YAP1 (% UTC) |
| --- | --- |
| 1198653 (k[5mC]*kT*dT*dT*dT*dA*d[5mC]*dA*dT*dT*dA*dG*kG*eA*kA*e[5mC]; antisense) [Compound 1198653] | 64 % UTC |
| 1198642 (kT*kA*dT*dT*dA*dG*dA*dG*dT*dA*dT*dG*kT*eG*kG*e[5mC]; antisense) [Compound 1198642] | 19 % UTC |
| 1198771 (kT*e[5mC]*kT*dT*dA*dT*dA*dT*dG*dG*dT*dT*eT*eT*kG*kT; antisense) [Compound 1198771] | 85 % UTC |

Same assay, conditions: Table 42 (separate experiment); SNU-449 cells, 10,000 cells per well, free uptake, 2,000 nM modified oligonucleotide, approximately 48 hours; RTS36584; normalized to RIBOGREEN; Yap1 mRNA relative to untreated control cells

| Substance | YAP1 (% UTC) |
| --- | --- |
| 1198215 (kT*k[5mC]*dT*dA*dT*dA*dT*dT*dA*dG*dA*eG*eT*eA*kT*kG; antisense) [Compound 1198215] | 120 % UTC |
| 1198238 (kA*kT*dA*dG*dT*dG*d[5mC]*dT*dT*dT*dG*eG*eA*eA*kG*kA) [Compound 1198238] | 88 % UTC |
| 1198647 (kG*kG*dT*dA*dT*dA*dA*d[5mC]*dT*dG*dG*dG*k[5mC]*eA*kA*eA) [Compound 1198647] | 47 % UTC |
| 1198710 (kA*k[5mC]*dT*dA*dA*dG*dT*dA*dA*dG*dG*dT*kT*eT*k[5mC]*e[5mC]; antisense) [Compound 1198710] | 51 % UTC |
| 1198200 (kA*kA*dT*dT*dG*dT*d[5mC]*dT*d[5mC]*dA*dT*eG*e[5mC]*e[5mC]*kT*kT; antisense) [Compound 1198200] | 49 % UTC |
| 1198698 (antisense kA*kA*dG*dT*dG*dT*dA*dT*dG*dT*d[5mC]*dA*kG*eA*kA*eG) [Compound 1198698] | 12 % UTC |

Same assay, conditions: Table 43 experiment; SNU-449 cells, 10,000 cells per well, free uptake, 2,000 nM, approximately 48 hours; RTS36584; Yap1 mRNA normalized to RIBOGREEN, relative to untreated control cells

| Substance | YAP1 (% UTC) |
| --- | --- |
| 1198468 (antisense kT*kT*dA*dG*dA*dG*dT*dA*dT*dG*dT*eG*kG*e[5mC]*kA*eA) [Compound 1198468] | 22 % UTC |
| 1095593 (antisense kT*kG*dA*dG*dG*dT*dA*dT*dA*dA*d[5mC]*eT*eG*eG*kG*k[5mC]) [Compound 1095593] | 16 % UTC |

Same assay, conditions: Table 44 experiment; SNU-449 cells, 10,000 cells per well, free uptake, 2,000 nM, approximately 48 hours; RTS36584; Yap1 mRNA normalized to RIBOGREEN, relative to untreated control cells

| Substance | YAP1 (% UTC) |
| --- | --- |
| 1198507 (kT*kT*dA*dT*dA*dT*dG*dG*dT*dT*dT*eT*kG*eT*kG*eT; antisense) [Compound 1198507] | 17 % UTC |
| 1198903 (kA*kT*dT*dA*dG*dA*dG*dT*dA*dT*dG*kT*dG*kG*d[5mC]*kA; antisense) [Compound 1198903] | 24 % UTC |

Same assay, conditions: Table 45; Yap1 mRNA as percent of untreated control, SNU-449 cells, single dose

| Substance | YAP1 (% UTC) |
| --- | --- |
| 1198928 (kG*kT*dG*d[5mC]*dT*dT*dT*dG*dG*dA*dA*kG*dA*kT*d[5mC]*kT; antisense) [Compound 1198928] | 28 % UTC |
| 1198931 (kA*kG*dG*dA*dT*dG*d[5mC]*dA*dT*dG*dG*kT*dT*kT*dT*kT; antisense) [Compound 1198931] | 47 % UTC |
| 1198913 (kT*kT*dA*d[5mC]*dA*dT*dT*dA*dG*dG*dA*kA*d[5mC]*kA*dA*kG; antisense) [Compound 1198913] | 86 % UTC |
| 1198957 (kT*kT*dT*dA*dT*dG*dT*dA*dA*dT*dA*kT*dT*kG*d[5mC]*kA; antisense) [Compound 1198957] | 81 % UTC |
| 1198960 (kA*kA*dG*dT*dG*dT*dA*dT*dG*dT*d[5mC]*kA*dG*kA*dA*kG; antisense) [Compound 1198960] | 6 % UTC |

Same assay, conditions: Table 46; Yap1 mRNA as percent of untreated control, SNU-449 cells, single dose

| Substance | YAP1 (% UT) |
| --- | --- |
| 1198812 (antisense kA*kT*dA*dT*dG*dG*dA*dA*dA*dT*dT*kG*eT*k[5mC]*eT*k[5mC]) [Compound 1198812] | 26 % UT |
| 1198839 (k[5mC]*kT*dT*dT*dG*dG*dA*dA*dG*dA*dT*k[5mC]*eT*kG*eA*kA; antisense) [Compound 1198839] | 36 % UT |
| 1198814 (antisense kA*kG*dA*dG*dT*dA*dT*dG*dT*dG*dG*k[5mC]*eA*kA*eT*kA) [Compound 1198814] | 13 % UT |
| 1198843 (kA*kG*dT*dG*d[5mC]*dT*dT*dT*dG*dG*dA*kA*eG*kA*eT*k[5mC]; antisense) [Compound 1198843] | 45 % UT |

Same assay, conditions: Table 48; Yap1 mRNA level relative to untreated control; modified oligonucleotides targeting SEQ ID NO.: 1 and 2

| Substance | YAP1 (% UT) |
| --- | --- |
| 1197204 (antisense k[5mC]*kA*kA*d[5mC]*dT*d[5mC]*dT*dT*dA*dT*dA*dT*dG*kG*kT*kT) [Compound 1197204] | 89 % UT |
| 1198284 (kT*kG*kT*d[5mC]*dT*d[5mC]*dA*dT*dG*d[5mC]*d[5mC]*dT*kT*eA*kT*eA; antisense) [Compound 1198284] | 27 % UT |
| 1198333 (kA*kT*kT*d[5mC]*dA*dG*dA*dT*dT*dT*dA*dG*kG*eA*kT*eG; antisense) [Compound 1198333] | 77 % UT |
| 1197205 (antisense kG*kA*k[5mC]*dA*dA*d[5mC]*dT*d[5mC]*dT*dT*dA*dT*dA*kT*kG*kG) [Compound 1197205] | 67 % UT |
| 1198290 (kT*kG*kG*dA*dA*dA*dT*dT*dG*dT*d[5mC]*dT*k[5mC]*eA*kT*eG; antisense) [Compound 1198290] | 15 % UT |

Same assay, conditions: Table 49; Yap1 mRNA level relative to untreated control; modified oligonucleotides targeting SEQ ID NO.: 1 and 2

| Substance | YAP1 (% UT) |
| --- | --- |
| 1198572 (antisense kA*kA*kG*d[5mC]*dA*d[5mC]*dT*dT*dT*dT*dA*d[5mC]*kA*kT*kT*eA) [Compound 1198572] | 53 % UT |
| 1198302 (kT*kA*kT*dA*dA*d[5mC]*dT*dG*dG*dG*d[5mC]*dA*kA*eA*kT*eT; antisense) [Compound 1198302] | 67 % UT |
| 1198555 (antisense kA*kT*kT*dA*dG*dA*dG*dT*dA*dT*dG*dT*kG*kG*k[5mC]*eA) [Compound 1198555] | 11 % UT |
| 1198303 (kG*kG*kT*dA*dT*dA*dA*d[5mC]*dT*dG*dG*dG*k[5mC]*eA*kA*eA; antisense) [Compound 1198303] | 27 % UT |

Same assay, conditions: Table 50; Yap1 mRNA remaining as percent of untreated control (UT), SNU-449 cells, single dose

| Substance | YAP1 (% UT) |
| --- | --- |
| 1198588 (antisense kA*kG*kA*dT*dT*dT*dA*dG*dG*dA*dT*dG*k[5mC]*kA*kT*eG) [Compound 1198588] | 32 % UT |
| 1197247 (antisense kA*kA*kG*d[5mC]*mA*d[5mC]*dT*dT*dT*dT*dA*d[5mC]*dA*kT*kT*kA) [Compound 1197247] | 47 % UT |
| 1198620 (kA*kG*kT*dA*dA*dG*dG*dT*dT*dT*d[5mC]*d[5mC]*k[5mC]*kA*kG*eA) [Compound 1198620] | 26 % UT |

Same assay, conditions: Table 51; Yap1 mRNA remaining as percent of untreated control (UT), SNU-449 cells, single dose

| Substance | YAP1 (% UT) |
| --- | --- |
| 1197316 (kT*kA*kA*dG*mU*dA*dA*dG*dG*dT*dT*dT*d[5mC]*k[5mC]*k[5mC]*kA; antisense) [Compound 1197316] | 46 % UT |
| 1197259 (kA*kT*kA*dT*mG*dG*dT*dT*dT*dT*dG*dT*dG*kT*kG*kT) [Compound 1197259] | 59 % UT |

Same assay, conditions: Table 52; Yap1 mRNA, modified oligonucleotides targeting SEQ ID NO: 1 and 2

| Substance | YAP1 (% UT) |
| --- | --- |
| 1200816 (kG*k[5mC]*kA*d[5mC]*dT*mU*dT*dT*dA*d[5mC]*dA*dT*dT*kA*kG*kG; antisense) [Compound 1200816] | 37 % UT |
| 1200866 (kA*kG*kT*dA*dA*mG*dG*dT*dT*dT*d[5mC]*d[5mC]*d[5mC]*kA*kG*kA; antisense) [Compound 1200866] | 41 % UT |
| 1200817 (kA*kG*k[5mC]*dA*d[5mC]*mU*dT*dT*dT*dA*d[5mC]*dA*dT*kT*kA*kG; antisense) [Compound 1200817] | 38 % UT |
| 1200871 (kG*kA*k[5mC]*dT*dA*mA*dG*dT*dA*dA*dG*dG*dT*kT*kT*k[5mC]; antisense) [Compound 1200871] | 65 % UT |

Same assay, conditions: Yap1 mRNA, percent of untreated control; modified oligonucleotides targeting SEQ ID NO: 1 and 2; Table 47

| Substance | YAP1 (% UT) |
| --- | --- |
| 1074462 (kG*kG*kA*dA*dA*dT*dT*dG*dT*d[5mC]*dT*d[5mC]*dA*kT*kG*k[5mC]; antisense) [Compound 1074462] | 7 % UT |
| 1197179 (antisense kT*kG*kG*dA*dA*dA*dT*dT*dG*dT*d[5mC]*dT*d[5mC]*kA*kT*kG) [Compound 1197179] | 16 % UT |
| 1197187 (antisense kG*kG*kA*dA*dG*dA*dT*d[5mC]*dT*dG*dA*dA*dA*k[5mC]*kT*k[5mC]) [Compound 1197187] | 24 % UT |
| 1009394 (kT*kA*kT*dA*dA*d[5mC]*dT*dG*dG*dG*d[5mC]*dA*dA*kA*kT*kT; antisense) [Compound 1009394] | 73 % UT |
